Measured values: patent publication US20090281054A1, “COMPOSITIONS AND METHODS COMPRISING CAPURAMYCIN ANALOGUES” (priority 2008, published 2009)
≈ marks a conversion by molar mass, not a printed value. Read-outs that look alike come from different tables or passages of the source.

Experiments:
[1] = test system: MTB in J774A.1 cells; assay: Intracellular activity of SQ641 with efflux pump blockers; type: cell-based, Mycobacterium tuberculosis; conditions: 4 days exposure
[2] = test system: MTB in J774 cells; assay: Intracellular activity of amino acid conjugates; type: cell-based, Mycobacterium tuberculosis; conditions: day 0 RLU 775, Control day 7 31700
Method: The amino acid conjugates were tested at concentrations of 4 mg/mL and 8 mg/mL compared with a control and isoniazid (INH).
The intracellular activity against MTB by capuramycin amino acid derivatives was tested. Cells J774 were infected with MTB and treated for 7 days with the amino acid derivative. The mean Relative Light Unites (RLU), an estimation of bacterial viability, was measured as described in Snewin et al., Infect. Immun., 1999, 67(9), 4586-4593).

[3] = test system: Mycobacterium tuberculosis (MTB); assay: MIC by BACTEC radiometric method; type: cell-based
Method: Determination of MIC. MIC of drugs for laboratory and clinical strains of Mycobacterium tuberculosis (MTB) was determined by BACTEC radiometric method as described by Heifets (1991), “Antituberculosis Drugs: Antimicrobial Activity in vitro, Drug Susceptibility in the Chemotherapy of Microbacterial Infections, Boca Raton, Fla., CRC Press and Luna-Herrera et al., Antimicrob. Agents and Chemother. 1995, 39(2), 440-444. […] The minimal inhibitory concentration (MIC) was defined as the lowest concentrations of drug that caused GI equal to or less than that of the 1/100 dilution growth control. Capuramycin analogues SQ641, SQ922 and SQ997 were tested at concentrations ranging from […].

[4] = test system: M. smegmatis; assay: Synergy by checkerboard titration (microdilution); type: cell-based
[5] = test system: MAC; assay: Synergy by checkerboard titration (microdilution); type: cell-based, M. avium complex; conditions: for MIC: Mycobacterium avium, drug alone
[6] = test system: MSMG and MTB (H37Rv); assay: Minimum bactericidal concentration (MBC), MBC/MIC ratio; type: cell-based, Mycobacterium tuberculosis; M. smegmatis
[7] = test system: M. smegmatis (MSMG; MC2155); assay: MIC by microdilution method in 7H9 broth; type: cell-based; conditions: MSMG MC^2155, 72 hr
[8] = test system: Mycobacteria (all mycobacterial species tested); assay: In vitro MIC and MBC across mycobacterial species; type: cell-based; conditions: NTM tested (Table 5)

## CCCCCCCCCC(=O)O[C@@H]1[C@H](OC)[C@@H]([C@@H](O[C@H]2OC(C(=O)N[C@H]3CCC[C@@H](C)NC3=O)=C[C@H](O)[C@@H]2O)C(N)=O)O[C@H]1n1ccc(=O)[nH]c1=O [SQ641]
[1]; SQ641 1 μg/ml + CsA10 (12 μg/ml), Day 0 RLU 811, Control Day 7 3004
  Mean RLU at Day 7: 342 RLU
[1]; SQ641 1 μg/ml + VE10 (5 μg/ml), Day 0 RLU 425, Control Day 7 6283
  Mean RLU at Day 7: 686 RLU
[1]; SQ641 1 μg/ml, Day 0 RLU 425, Control Day 7 6283
  Mean RLU at Day 7: 3866 RLU
[1]; SQ641 1 μg/ml, Day 0 RLU 811, Control Day 7 3004
  Mean RLU at Day 7: 2233 RLU
[1]; SQ641 2 μg/ml + CsA10 (12 μg/ml), Day 0 RLU 811, Control Day 7 3004
  Mean RLU at Day 7: 43 RLU
[1]; SQ641 2 μg/ml + VE10 (5 μg/ml), Day 0 RLU 425, Control Day 7 6283
  Mean RLU at Day 7: 509 RLU
[1]; SQ641 2 μg/ml, Day 0 RLU 425, Control Day 7 6283
  Mean RLU at Day 7: 2362 RLU
[1]; SQ641 2 μg/ml, Day 0 RLU 811, Control Day 7 3004
  Mean RLU at Day 7: 1361 RLU
[1]; SQ641 4 μg/ml + CsA10 (12 μg/ml), Day 0 RLU 811, Control Day 7 3004
  Mean RLU at Day 7: 28 RLU
[1]; SQ641 4 μg/ml + VE10 (5 μg/ml), Day 0 RLU 425, Control Day 7 6283
  Mean RLU at Day 7: 368 RLU
[1]; SQ641 4 μg/ml, Day 0 RLU 425, Control Day 7 6283
  Mean RLU at Day 7: 2329 RLU
[1]; SQ641 4 μg/ml, Day 0 RLU 811, Control Day 7 3004
  Mean RLU at Day 7: 1476 RLU
[1]; SQ641 8 μg/ml + CsA10 (12 μg/ml), Day 0 RLU 811, Control Day 7 3004
  Mean RLU at Day 7: 15 RLU
[1]; SQ641 8 μg/ml + VE10 (5 μg/ml), Day 0 RLU 425, Control Day 7 6283
  Mean RLU at Day 7: 44 RLU
[1]; SQ641 8 μg/ml, Day 0 RLU 425, Control Day 7 6283
  Mean RLU at Day 7: 1392 RLU
[1]; SQ641 8 μg/ml, Day 0 RLU 811, Control Day 7 3004
  Mean RLU at Day 7: 850 RLU
[1]; SQ641 16 μg/ml + CsA10 (12 μg/ml), Day 0 RLU 811, Control Day 7 3004
  Mean RLU at Day 7: 14 RLU
[1]; SQ641 16 μg/ml + VE10 (5 μg/ml), Day 0 RLU 425, Control Day 7 6283
  Mean RLU at Day 7: 18 RLU
[1]; SQ641 16 μg/ml, Day 0 RLU 425, Control Day 7 6283
  Mean RLU at Day 7: 654 RLU
[1]; SQ641 16 μg/ml, Day 0 RLU 811, Control Day 7 3004
  Mean RLU at Day 7: 346 RLU
[1]; SQ641 32 μg/ml + CsA10 (12 μg/ml), Day 0 RLU 811, Control Day 7 3004
  Mean RLU at Day 7: 11 RLU
[1]; SQ641 32 μg/ml + VE10 (5 μg/ml), Day 0 RLU 425, Control Day 7 6283
  Mean RLU at Day 7: 12 RLU
[1]; SQ641 32 μg/ml, Day 0 RLU 425, Control Day 7 6283
  Mean RLU at Day 7: 141 RLU
[1]; SQ641 32 μg/ml, Day 0 RLU 811, Control Day 7 3004
  Mean RLU at Day 7: 113 RLU
[2]; 4 μg/ml
  Mean RLU on day 7: 4707 RLU
[2]; 8 μg/ml
  Mean RLU on day 7: 2755 RLU
[3]; H37RV, MTB strain H37Rv
  MIC: 1 mg/L (≈ 1.36 µM)
[3]; MTB
  MIC90: 4 mg/L (≈ 5.42 µM)
[3]; MTB strain 16
  MIC: 4 mg/L (≈ 5.42 µM)
[3]; MTB strain 113
  MIC: 1 mg/L (≈ 1.36 µM)
[3]; MTB strain 158
  MIC: 4 mg/L (≈ 5.42 µM)
[3]; MTB strain 606
  MIC: 4 mg/L (≈ 5.42 µM)
[3]; MTB strain 847
  MIC: 4 mg/L (≈ 5.42 µM)
[3]; MTB strain 1351
  MIC: 1 mg/L (≈ 1.36 µM)
[3]; MTB strain 1407
  MIC: 2 mg/L (≈ 2.71 µM)
[3]; MTB strain 1498
  MIC: 4 mg/L (≈ 5.42 µM)
[3]; MTB strain 1665
  MIC: 2 mg/L (≈ 2.71 µM)
[3]; MTB strain 1703
  MIC: 4 mg/L (≈ 5.42 µM)
[3]; MTB strain 1760
  MIC: 8 mg/L (≈ 10.8 µM)
[3]; MTB strain 1782
  MIC: 2 mg/L (≈ 2.71 µM)
[3]; MTB strain 1901
  MIC: 4 mg/L (≈ 5.42 µM)
[3]; MTB strain 1921
  MIC: 4 mg/L (≈ 5.42 µM)
[3]; MTB strain 2224
  MIC: 4 mg/L (≈ 5.42 µM)
[3]; MTB strain 2554
  MIC: 4 mg/L (≈ 5.42 µM)
[3]; MTB strain 2693
  MIC: 8 mg/L (≈ 10.8 µM)
[3]; MTB strain 8266
  MIC: 2 mg/L (≈ 2.71 µM)
[3]; MTB strain 8642
  MIC: 4 mg/L (≈ 5.42 µM)
[4]; M. smegmatis, SQ641 + EMB
  ΣFIC: 0.375
[4]; M. smegmatis, SQ641 + INH
  ΣFIC: 0.25
[4]; M. smegmatis, SQ641 + RIF
  ΣFIC: 0.75
[4]; M. smegmatis, SQ641 + SM
  ΣFIC: 1.0
[4]; M. smegmatis, combination SQ641 + EMB
  MIC Combination: 0.25 mg/L
[4]; M. smegmatis, combination SQ641 + INH
  MIC Combination: 0.25 mg/L
[4]; M. smegmatis, combination SQ641 + RIF
  MIC Combination: 1.0 mg/L
[4]; M. smegmatis, combination SQ641 + SM
  MIC Combination: 1.0 mg/L
[4]; MSMG
  Synergy with other anti-mycobacterial drugs: synergy in combination with INH and EMB in MSMG
[4]; Mycolicibacterium smegmatis, M. smegmatis, drug alone
  MIC: 2 mg/L
[5]; MAC A5, SQ641 + AMK
  ΣFIC: 0.75
[5]; MAC A5, SQ641 + CLA, ≦0.5 synergistic, ≧4.0 antagonistic
  ΣFIC: 0.75
[5]; MAC A5, combination SQ641 + AMK
  MIC Combination: 0.125 mg/L
[5]; MAC A5, combination SQ641 + CLA
  MIC Combination: 0.125 mg/L
[5]; MAC A5, combination SQ641 + EMB
  MIC Combination: 0.062 mg/L
[5]; MAC JSH1, SQ641 + AMK
  ΣFIC: 0.625
[5]; MAC JSH1, SQ641 + CLA
  ΣFIC: 2.0
[5]; MAC JSH1, combination SQ641 + AMK
  MIC Combination: 0.125 mg/L
[5]; MAC JSH1, combination SQ641 + CLA
  MIC Combination: 1 mg/L
[5]; MAC JSH1, combination SQ641 + EMB
  MIC Combination: 0.25 mg/L
[5]; MAC NIH C1-1, SQ641 + AMK
  ΣFIC: 1.0
[5]; MAC NIH C1-1, SQ641 + CLA
  ΣFIC: 2.0
[5]; MAC NIH C1-1, combination SQ641 + AMK
  MIC Combination: 0.5 mg/L
[5]; MAC NIH C1-1, combination SQ641 + CLA
  MIC Combination: 2.0 mg/L
[5]; MAC NIH C1-1, combination SQ641 + EMB
  MIC Combination: 0.06 mg/L
[5]; MAC A5
  MIC: 0.25 mg/L
[5]; MAC JSH1
  MIC: 1 mg/L
[5]; MAC NIH C1-1
  MIC: 2 mg/L
[6]
  MBC/MIC ratio: 1
[7]
  MIC: 2 mg/L (≈ 2.71 µM)
[7]; Mycolicibacterium smegmatis, MC2155|MC^2155, read-out: MIC
  MIC: 2 mg/L (≈ 2.71 µM)
[8]
  MIC90: 2 mg/L (≈ 2.71 µM)
